# ChEMBL document CHEMBL5505978, “Novel estrogen receptor β/histone deacetylase dual-targeted near-infrared fluorescent probes as theranostic agents for imaging and treatment of prostate cancer” (Eur J Med Chem, 2024)
# pIC50: −log10 of the molar value. Activity calls are given as the source filed them. No cut-off for these calls is given here.
# Experiments:
# [1] = target: Estrogen receptor beta (Homo sapiens) (UniProt Q92731); test: Binding affinity to ERbeta in human DU-145 cells at 10 uM incubated for 30 mins by immunofluorescence based assay; type: cell-based; details: filed as agonist
# [2] = Drug uptake in Balb/c mouse xenografted with human DU-145 cells assessed as increase in fluorescence intensity in tumor tissue at 0.5 mg/kg,ip administration and measured at 24 hrs by imaging analysis; type: ADME, organism-based, Neoplasm; details: in vivo
# [3] = target: Estrogen receptor beta (Homo sapiens) (UniProt Q92731); test: Binding affinity to ERbeta in human DU-145 cells assessed as increase in intracellular fluorescence signal at 10 uM incubated for 1 hr in presence of SAHA by imaging analysis; type: cell-based
# DU-145 [4] = test: Antitumor activity against human DU-145 cells xenografted in Balb/c mouse assessed as reduction in tumor weight at 10 mg/kg,ip administration once every 2 days for 20 days; type: functional, organism-based; details: time 20.0 day
# [5] = Drug uptake in Balb/c mouse xenografted with human DU-145 cells assessed as increase in fluorescence intensity in tumor tissue at 0.5 mg/kg,ip administration and measured at 17 hrs by imaging analysis; type: ADME, organism-based, Neoplasm; details: in vivo
# in vitro = details: green monkey (Chlorocebus sabaeus), Vero cells
# Description: Antiproliferative activity against green monkey Vero cells assessed as inhibition of cell growth incubated for 3 to 5 days by CCK-8 assay
# [6] = Toxicity in Balb/c mouse xenografted with human DU-145 cells assessed as animal death at 10 mg/kg,ip administration once every 2 days for 20 days; type: organism-based; details: in vivo, 480 h, time 20 day
# [7] = Drug uptake in Balb/c mouse xenografted with human DU-145 cells assessed as increase in fluorescence intensity in tumor at 0.5 mg/kg,ip administration and measured at 12 hrs by imaging analysis; type: ADME, organism-based; details: in vivo
# [8] = Drug uptake in Balb/c mouse xenografted with human DU-145 cells assessed as increase in fluorescence intensity in tumor at 0.5 mg/kg,ip administration and measured at 17 hrs by imaging analysis; type: ADME, organism-based; details: in vivo
# [9] = Drug uptake in Balb/c mouse xenografted with human DU-145 cells assessed as increase in fluorescence intensity in tumor at 0.5 mg/kg,ip administration and measured upto 24 hrs by imaging analysis; type: ADME, organism-based; details: in vivo
# [10] = Toxicity in Balb/c mouse xenografted with human DU-145 cells assessed as change in body weight at 10 mg/kg,ip administration once every 2 days for 20 days; type: organism-based; details: in vivo, 480 h, time 20 day
# DU-145 [11] = test: Antitumor activity against human DU-145 cells xenografted in Balb/c mouse assessed as reduction in tumor volume at 10 mg/kg,ip administration once every 2 days for 20 days; type: functional, organism-based; details: time 20.0 day
# [12] = target: T1, Protein deacetylase HDAC6 (Homo sapiens, UniProt Q9UBN7); test: Inhibition of HDAC6 (unknown origin) preincubated with compound for 30 mins followed by substrate addition measured after 15 mins by fluorescence based assay
# T1 sequence (Q9UBN7 whole entry): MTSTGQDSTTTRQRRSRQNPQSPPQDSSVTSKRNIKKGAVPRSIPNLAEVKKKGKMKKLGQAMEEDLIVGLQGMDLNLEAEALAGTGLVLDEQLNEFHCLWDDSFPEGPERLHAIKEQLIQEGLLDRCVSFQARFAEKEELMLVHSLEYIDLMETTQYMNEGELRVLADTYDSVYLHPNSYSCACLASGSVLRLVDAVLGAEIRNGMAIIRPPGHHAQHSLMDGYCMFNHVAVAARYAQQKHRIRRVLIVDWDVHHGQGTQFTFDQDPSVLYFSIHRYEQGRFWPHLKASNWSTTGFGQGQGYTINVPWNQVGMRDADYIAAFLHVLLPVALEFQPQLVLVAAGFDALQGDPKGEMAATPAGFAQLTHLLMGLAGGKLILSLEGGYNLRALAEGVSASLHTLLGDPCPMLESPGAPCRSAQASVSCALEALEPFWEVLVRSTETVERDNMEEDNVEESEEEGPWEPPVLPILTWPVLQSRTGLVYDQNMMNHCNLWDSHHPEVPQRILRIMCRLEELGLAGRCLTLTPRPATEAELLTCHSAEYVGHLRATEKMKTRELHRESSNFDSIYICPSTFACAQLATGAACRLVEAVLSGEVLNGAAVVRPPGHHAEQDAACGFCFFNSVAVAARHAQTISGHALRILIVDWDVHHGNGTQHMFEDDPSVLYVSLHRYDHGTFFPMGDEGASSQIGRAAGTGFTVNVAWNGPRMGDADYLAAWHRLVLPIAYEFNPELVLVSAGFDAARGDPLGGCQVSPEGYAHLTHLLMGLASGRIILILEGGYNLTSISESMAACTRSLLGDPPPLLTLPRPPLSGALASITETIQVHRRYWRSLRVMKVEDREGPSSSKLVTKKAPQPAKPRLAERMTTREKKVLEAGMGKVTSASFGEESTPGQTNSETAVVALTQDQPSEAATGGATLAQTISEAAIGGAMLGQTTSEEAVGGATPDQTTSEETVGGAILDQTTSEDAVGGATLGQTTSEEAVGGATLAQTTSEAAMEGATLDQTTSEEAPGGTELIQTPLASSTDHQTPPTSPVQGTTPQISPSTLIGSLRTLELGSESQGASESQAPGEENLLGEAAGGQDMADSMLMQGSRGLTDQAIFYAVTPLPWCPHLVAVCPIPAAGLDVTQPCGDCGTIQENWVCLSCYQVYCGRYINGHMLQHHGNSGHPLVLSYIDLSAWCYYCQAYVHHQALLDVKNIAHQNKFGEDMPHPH
# [13] = target: T2, Protein deacetylase HDAC6 (Homo sapiens) (UniProt Q9UBN7); test: Binding affinity to HDAC6 in human DU-145 cells at 10 uM incubated for 30 mins by Alexa Fluor 488 staining based immunofluorescence based assay; type: cell-based; details: filed as agonist
# T2 sequence (whole entry): T1 sequence (Q9UBN7 whole entry)
# [14] = Drug uptake in Balb/c mouse xenografted with human DU-145 cells assessed as increase in fluorescence intensity in liver at 0.5 mg/kg,ip administration and measured at 17 hrs by imaging analysis; type: ADME, organism-based; details: in vivo
# [15] = Drug uptake in Balb/c mouse xenografted with human DU-145 cells assessed as increase in fluorescence intensity in kidney at 0.5 mg/kg,ip administration and measured at 17 hrs by imaging analysis; type: ADME, organism-based; details: in vivo
# [16] = Drug uptake in human DU-145 cells assessed as colocalization in […] by measuring fluorescence signal at 10 uM incubated for 30 mins by Mito-Tracker Green staining based fluorescence imaging analysis; type: ADME, cell-based; details: du-145, 0.5 h
# Histone deacetylase 1 = Histone deacetylase 1 (Homo sapiens, UniProt Q13547); test: Inhibition of HDAC1 (unknown origin) preincubated with compound for 30 mins followed by substrate addition measured after 15 mins by fluorescence based assay
# [17] = Drug uptake in human DU-145 cells assessed as colocalization in nucleus by measuring fluorescence signal at 10 uM incubated for 30 mins by DAPI staining based fluorescence imaging analysis; type: ADME, cell-based; details: du-145, 0.5 h
# [18] = target: Estrogen receptor beta (Homo sapiens) (UniProt Q92731); test: Binding affinity to ERbeta in human DU-145 cells assessed as increase in intracellular fluorescence signal at 10 uM incubated for 30 mins in presence of estradiol by imaging analysis; type: cell-based
# DU-145 [19] = test: cells; type: functional, cell-based; details: Homo sapiens
# Description: Antiproliferative activity against human DU-145 cells assessed as inhibition of cell growth incubated for 3 to 5 days by CCK-8 assay
# [20] = target: Estrogen receptor beta (Homo sapiens) (UniProt Q92731); test: Binding affinity to ERbeta in human DU-145 cells assessed as increase in intracellular fluorescence signal at 10 uM incubated for 30 mins by imaging analysis; type: cell-based; details: filed as agonist
# [21] = Drug uptake in Balb/c mouse xenografted with human DU-145 cells assessed as increase in fluorescence intensity in tumor tissue at 0.5 mg/kg,ip administration and measured at 36 hrs by imaging analysis; type: ADME, organism-based, Neoplasm; details: in vivo
# DU-145 [22] = test: Antitumor activity against human DU-145 cells xenografted in Balb/c mouse assessed as inhibition of tumor growth at 10 mg/kg,ip administration once every 2 days for 20 days; type: functional, organism-based; details: time 20.0 day
# Sequence of Estrogen receptor beta (Homo sapiens) (Q92731 whole entry): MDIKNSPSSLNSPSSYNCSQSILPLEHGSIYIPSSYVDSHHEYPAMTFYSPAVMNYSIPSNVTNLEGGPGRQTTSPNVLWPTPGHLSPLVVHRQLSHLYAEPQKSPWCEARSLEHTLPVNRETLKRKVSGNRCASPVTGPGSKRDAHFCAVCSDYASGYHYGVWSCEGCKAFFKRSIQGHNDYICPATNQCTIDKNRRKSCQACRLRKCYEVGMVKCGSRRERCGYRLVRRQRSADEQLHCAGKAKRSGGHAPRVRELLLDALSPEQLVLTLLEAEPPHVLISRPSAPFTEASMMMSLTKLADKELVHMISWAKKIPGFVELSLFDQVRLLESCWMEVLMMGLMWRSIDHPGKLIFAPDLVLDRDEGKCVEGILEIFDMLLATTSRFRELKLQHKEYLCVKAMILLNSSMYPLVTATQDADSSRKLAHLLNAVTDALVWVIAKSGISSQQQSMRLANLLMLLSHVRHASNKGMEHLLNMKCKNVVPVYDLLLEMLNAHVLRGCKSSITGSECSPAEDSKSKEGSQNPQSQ
# Sequence of Histone deacetylase 1 (Q13547 whole entry): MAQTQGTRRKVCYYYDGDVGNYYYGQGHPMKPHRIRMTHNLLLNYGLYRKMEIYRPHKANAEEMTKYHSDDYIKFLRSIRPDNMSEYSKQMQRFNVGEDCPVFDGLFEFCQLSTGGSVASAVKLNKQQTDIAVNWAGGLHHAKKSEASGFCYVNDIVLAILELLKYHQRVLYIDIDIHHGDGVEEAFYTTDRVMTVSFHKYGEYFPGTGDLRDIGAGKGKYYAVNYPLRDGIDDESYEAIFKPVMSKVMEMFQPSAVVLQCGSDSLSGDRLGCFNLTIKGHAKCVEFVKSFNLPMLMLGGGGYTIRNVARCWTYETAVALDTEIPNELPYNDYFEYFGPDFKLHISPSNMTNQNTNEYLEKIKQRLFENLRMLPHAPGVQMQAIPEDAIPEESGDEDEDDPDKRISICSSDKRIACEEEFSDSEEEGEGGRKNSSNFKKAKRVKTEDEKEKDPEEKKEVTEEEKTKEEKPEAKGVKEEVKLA
Compound,Activity [1] [%],Activity (DU-145 [4]),pIC50 (in vitro),Activity (DU-145 [11]),pIC50 [12],Activity [13] [%],Drug uptake [16],IC50 (Histone deacetylase 1),Drug uptake [17],pIC50 (DU-145 [19]),also measured
N#CC(C#N)=C1C=C(/C=C/c2ccc(O)c(NC(=O)CCCCCCC(=O)NO)c2)Oc2ccccc21,90.8,Active,5.21,Active,7.28,76.7,Active,Not Active,Active,6.02,Drug uptake [2]: Not Active; Activity [3]: inactive; Drug uptake [5]: Active; Activity [6]: Non-Toxic; Drug uptake [7]: Active; Drug uptake [8]: Active; Drug uptake [9]: Active; Activity [10]: Non-Toxic; Drug uptake [14]: Not Active; Drug uptake [15]: Not Active; Activity [18]: inactive; Activity [20]: Active; Drug uptake [21]: Not Active; Activity (DU-145 [22]): Active
N#CC(C#N)=C1C=C(/C=C/c2ccc(O)cc2)Oc2ccc(O)cc21,,,5.84,,,,,,,6.57,
O=C(CCCCCCC(=O)Nc1ccccc1)NO,,Active,,Active,,,,,,,
N#CC(C#N)=C1C=C(/C=C/c2ccc(O)c(NC(=O)CCCCCCC(=O)NO)c2)Oc2ccc(O)cc21,96.3,,< 4.00,,5.63,97.6,Active,Not Active,Active,4.82,
